# Earlier results, collected in article PMC3290704 (Journal of the American Chemical Society, 2012).
# pKd: −log10 of the molar value.
# Tests used:
# TAZ2 from p300 = conditions: NMR structure of complex
# TAZ2 = conditions: fluorescence titrations
Substance,TAZ2 residues in direct hydrophobic contact with p53 (TAZ2 from p300),p53 residues forming an α-helix upon binding (TAZ2 from p300),pKd (TAZ2)
p53(2–39): p53(2–39) peptide in NMR structure with TAZ2 from p300,"Val1802, Leu1823, and Leu1826 of TAZ2 have direct hydrophobic contacts with p53",residues 17 ~ 24 of the p53 AD1 subdomain form an α-helix upon binding,–
"p53(13–61): p53(13–61), literature TAZ2 binder by fluorescence titration",–,–,7.70 to 8.00
